Assays:
Assay type in all cases: in vivo
[1] = system: giant foxtail (Setaria faberi); test: Test G Post-Emergence Protocol; details: Setaria faberi, post-emergence, 312 h, read-out: Foxtail, Giant damage rating; for pest or weed control at 15.625 g/ha: 15.625 g ai/ha, evaluated after 13 days (100=total damage to plant; 0=no damage to plant); for pest or weed control at 62.5 g/ha: 62.5 g ai/ha; for pest or weed control at 62.5 g/ha / pest or weed control at 250 g/ha: evaluated after 13 days, 100=total damage to plant, 0=no damage to plant; for pest or weed control at 250 g/ha: 250 g ai/ha
Outline: (§1)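 Pot-grown seedlings, 8 days old, raised in a glasshouse at 24/16 °C day/night with 14 h light and 65% humidity, were sprayed post-emergence with test compound in acetone/water (50:50) plus 0.5% Tween 20 at 15.625, 62.5 or 250 g/ha. Damage was scored visually 13 days later on a 0–100 scale (100 = total damage).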

[2] = system: velvetleaf (Abutilon theophrasti); test: Test G Post-Emergence Protocol; details: Abutilon theophrasti, post-emergence, 312 h, read-out: Velvetleaf damage rating; for pest or weed control at 15.625 g/ha: 15.625 g ai/ha, evaluated after 13 days (100=total damage to plant; 0=no damage to plant); for pest or weed control at 62.5 g/ha: 62.5 g ai/ha; for pest or weed control at 62.5 g/ha / pest or weed control at 250 g/ha: evaluated after 13 days, 100=total damage to plant, 0=no damage to plant; for pest or weed control at 250 g/ha: 250 g ai/ha
Outline: as §1

[3] = system: barnyardgrass (Echinochloa crus-galli); test: Test G Post-Emergence Protocol; details: Echinochloa crus-galli, post-emergence, 312 h, read-out: Barnyardgrass damage rating; for pest or weed control at 15.625 g/ha: 15.625 g ai/ha, evaluated after 13 days (100=total damage to plant; 0=no damage to plant); for pest or weed control at 62.5 g/ha: 62.5 g ai/ha; for pest or weed control at 62.5 g/ha / pest or weed control at 250 g/ha: evaluated after 13 days, 100=total damage to plant, 0=no damage to plant; for pest or weed control at 250 g/ha: 250 g ai/ha
Outline: as §1

[4] = system: redroot pigweed (Amaranthus retroflexus); test: Test G Post-Emergence Protocol; details: Amaranthus retroflexus, post-emergence, 312 h, read-out: Pigweed, Redroot damage rating; for pest or weed control at 15.625 g/ha: 15.625 g ai/ha, evaluated after 13 days (100=total damage to plant; 0=no damage to plant); for pest or weed control at 62.5 g/ha: 62.5 g ai/ha; for pest or weed control at 62.5 g/ha / pest or weed control at 250 g/ha: evaluated after 13 days, 100=total damage to plant, 0=no damage to plant; for pest or weed control at 250 g/ha: 250 g ai/ha
Outline: as §1

corn (Zea mays) [5] = test: Test G Post-Emergence Protocol; details: Zea mays, post-emergence, 312 h, read-out: Corn damage rating; for plant injury at 15.625 g/ha: 15.625 g ai/ha, evaluated after 13 days (100=total damage to plant; 0=no damage to plant); for plant injury at 62.5 g/ha: 62.5 g ai/ha; for plant injury at 62.5 g/ha / plant injury at 250 g/ha: evaluated after 13 days, 100=total damage to plant, 0=no damage to plant; for plant injury at 250 g/ha: 250 g ai/ha
Outline: as §1

[6] = system: ivy-leaved morning glory (Ipomoea hederacea); test: Test G Post-Emergence Protocol; details: Ipomoea, post-emergence, 312 h, read-out: Morningglory, Ivy-leaved damage rating; for pest or weed control at 15.625 g/ha: 15.625 g ai/ha, evaluated after 13 days (100=total damage to plant; 0=no damage to plant); for pest or weed control at 62.5 g/ha: 62.5 g ai/ha; for pest or weed control at 62.5 g/ha / pest or weed control at 250 g/ha: evaluated after 13 days, 100=total damage to plant, 0=no damage to plant; for pest or weed control at 250 g/ha: 250 g ai/ha
Outline: as §1

[7] = system: giant foxtail (Setaria faberi); test: Test G Pre-Emergence Protocol; details: Setaria faberi, pre-emergence, 312 h, evaluated after 13 days; for pest or weed control at 15.625 g/ha: 15.625 g ai/ha; for pest or weed control at 15.625 g/ha / pest or weed control at 250 g/ha: read-out: Foxtail, Giant damage rating (100=total damage to plant; 0=no damage to plant); for pest or weed control at 62.5 g/ha: 62.5 g ai/ha, 100=total damage to plant, 0=no damage to plant, read-out: Foxtail, Giant damage rating; for pest or weed control at 250 g/ha: 250 g ai/ha
Outline: (§2)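 Visual injury (0–100) at day 13 after a single pre-emergence spray. Rates: 15.625, 62.5, 250 g/ha in acetone–water 50:50 with 0.5% Tween 20. Growth conditions: 24/16° C, 14 h light, 65% humidity.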

[8] = system: velvetleaf (Abutilon theophrasti); test: Test G Pre-Emergence Protocol; details: Abutilon theophrasti, pre-emergence, 312 h, evaluated after 13 days; for pest or weed control at 15.625 g/ha: 15.625 g ai/ha; for pest or weed control at 15.625 g/ha / pest or weed control at 250 g/ha: read-out: Velvetleaf damage rating (100=total damage to plant; 0=no damage to plant); for pest or weed control at 62.5 g/ha: 62.5 g ai/ha, 100=total damage to plant, 0=no damage to plant, read-out: Velvetleaf damage rating; for pest or weed control at 250 g/ha: 250 g ai/ha
Outline: as §2

[9] = system: barnyardgrass (Echinochloa crus-galli); test: Test G Pre-Emergence Protocol; details: Echinochloa crus-galli, pre-emergence, 312 h, evaluated after 13 days; for pest or weed control at 15.625 g/ha: 15.625 g ai/ha; for pest or weed control at 15.625 g/ha / pest or weed control at 250 g/ha: read-out: Barnyardgrass damage rating (100=total damage to plant; 0=no damage to plant); for pest or weed control at 62.5 g/ha: 62.5 g ai/ha, 100=total damage to plant, 0=no damage to plant, read-out: Barnyardgrass damage rating; for pest or weed control at 250 g/ha: 250 g ai/ha
Outline: as §2

[10] = system: redroot pigweed (Amaranthus retroflexus); test: Test G Pre-Emergence Protocol; details: Amaranthus retroflexus, pre-emergence, 312 h, evaluated after 13 days; for pest or weed control at 15.625 g/ha: 15.625 g ai/ha; for pest or weed control at 15.625 g/ha / pest or weed control at 250 g/ha: read-out: Pigweed, Redroot damage rating (100=total damage to plant; 0=no damage to plant); for pest or weed control at 62.5 g/ha: 62.5 g ai/ha, 100=total damage to plant, 0=no damage to plant, read-out: Pigweed, Redroot damage rating; for pest or weed control at 250 g/ha: 250 g ai/ha
Outline: as §2

corn (Zea mays) [11] = test: Test G Pre-Emergence Protocol; details: Zea mays, pre-emergence, 312 h, evaluated after 13 days; for plant injury at 15.625 g/ha: 15.625 g ai/ha; for plant injury at 15.625 g/ha / plant injury at 250 g/ha: read-out: Corn damage rating (100=total damage to plant; 0=no damage to plant); for plant injury at 62.5 g/ha: 62.5 g ai/ha, 100=total damage to plant, 0=no damage to plant, read-out: Corn damage rating; for plant injury at 250 g/ha: 250 g ai/ha
Outline: as §2

[12] = system: ivy-leaved morning glory (Ipomoea hederacea); test: Test G Pre-Emergence Protocol; details: Ipomoea, pre-emergence, 312 h, evaluated after 13 days; for pest or weed control at 15.625 g/ha: 15.625 g ai/ha; for pest or weed control at 15.625 g/ha / pest or weed control at 250 g/ha: read-out: Morningglory, Ivy-leaved damage rating (100=total damage to plant; 0=no damage to plant); for pest or weed control at 62.5 g/ha: 62.5 g ai/ha, 100=total damage to plant, 0=no damage to plant, read-out: Morningglory, Ivy-leaved damage rating; for pest or weed control at 250 g/ha: 250 g ai/ha
Outline: as §2

SMILES | pest or weed control at 15.625 g/ha [1] | pest or weed control at 62.5 g/ha [1] | pest or weed control at 250 g/ha [1] | pest or weed control at 15.625 g/ha [2] | pest or weed control at 62.5 g/ha [2] | pest or weed control at 250 g/ha [2] | pest or weed control at 15.625 g/ha [3] | pest or weed control at 62.5 g/ha [3] | pest or weed control at 250 g/ha [3] | pest or weed control at 15.625 g/ha [4] | pest or weed control at 62.5 g/ha [4] | pest or weed control at 250 g/ha [4] | plant injury at 15.625 g/ha (corn (Zea mays) [5]) | plant injury at 62.5 g/ha (corn (Zea mays) [5]) | plant injury at 250 g/ha (corn (Zea mays) [5]) | pest or weed control at 15.625 g/ha [6] | pest or weed control at 62.5 g/ha [6] | pest or weed control at 250 g/ha [6] | pest or weed control at 15.625 g/ha [7] | pest or weed control at 62.5 g/ha [7] | also measured
CCOc1cc([C@@H]2CN(C)C(=O)[C@H]2C(=O)Nc2cccc(F)c2C)ccc1F (racemic) [Compound 1767] | 70% | 70% | 80% | 0% | 0% | 60% | 40% | 50% | 80% | 0% | 0% | 20% | 10% | 10% | 60% | 30% | 30% | 60% | 60% | 80% | pest or weed control at 250 g/ha [7]: 90%; pest or weed control at 15.625 g/ha [8]: 0%; pest or weed control at 62.5 g/ha [8]: 0%; pest or weed control at 250 g/ha [8]: 30%; pest or weed control at 15.625 g/ha [9]: 20%; pest or weed control at 62.5 g/ha [9]: 60%; pest or weed control at 250 g/ha [9]: 80%; pest or weed control at 15.625 g/ha [10]: 0%; pest or weed control at 62.5 g/ha [10]: 0%; pest or weed control at 250 g/ha [10]: 0%; plant injury at 15.625 g/ha (corn (Zea mays) [11]): 0%; plant injury at 62.5 g/ha (corn (Zea mays) [11]): 30%; plant injury at 250 g/ha (corn (Zea mays) [11]): 60%; pest or weed control at 15.625 g/ha [12]: 0%; pest or weed control at 62.5 g/ha [12]: 0%; pest or weed control at 250 g/ha [12]: 20%
CN1C[C@H](c2ccnc(C(C)(C)C)n2)[C@@H](C(=O)Nc2cccc(F)c2F)C1=O (racemic) [Compound 1769] | 0% | 10% | 60% | 0% | 0% | 0% | 0% | 0% | 50% | 0% | 0% | 0% | 0% | 0% | 10% | 0% | 0% | 20% | 20% | 40% | pest or weed control at 250 g/ha [7]: 90%; pest or weed control at 15.625 g/ha [8]: 0%; pest or weed control at 62.5 g/ha [8]: 0%; pest or weed control at 250 g/ha [8]: 0%; pest or weed control at 15.625 g/ha [9]: 0%; pest or weed control at 62.5 g/ha [9]: 20%; pest or weed control at 250 g/ha [9]: 70%; pest or weed control at 15.625 g/ha [10]: 0%; pest or weed control at 62.5 g/ha [10]: 0%; pest or weed control at 250 g/ha [10]: 0%; plant injury at 15.625 g/ha (corn (Zea mays) [11]): 0%; plant injury at 62.5 g/ha (corn (Zea mays) [11]): 0%; plant injury at 250 g/ha (corn (Zea mays) [11]): 0%; pest or weed control at 15.625 g/ha [12]: 0%; pest or weed control at 62.5 g/ha [12]: 0%; pest or weed control at 250 g/ha [12]: 0%
